Source: patent US8389552B2, “(S)-6-(2-(4-(cyclobutylsulfonyl)-1H-imidazol-1-yl)-3-cyclopentylpropanamido)nicotinic acid useful as a glucokinase activator” (Pfizer Inc., priority 2009, dated 2013)
Where two headings read alike, the source gives them in different places.

Molecular target: T1, Full-length glucokinase (beta cell isoform) (Homo sapiens, UniProt P35557)
T1 construct: Full-length glucokinase (beta cell isoform) was His-tagged at N-terminus; His tag (N); made in house; host or cells: E. coli BL21(DE3), pBCGK vector
T1 sequence (P35557 1-465): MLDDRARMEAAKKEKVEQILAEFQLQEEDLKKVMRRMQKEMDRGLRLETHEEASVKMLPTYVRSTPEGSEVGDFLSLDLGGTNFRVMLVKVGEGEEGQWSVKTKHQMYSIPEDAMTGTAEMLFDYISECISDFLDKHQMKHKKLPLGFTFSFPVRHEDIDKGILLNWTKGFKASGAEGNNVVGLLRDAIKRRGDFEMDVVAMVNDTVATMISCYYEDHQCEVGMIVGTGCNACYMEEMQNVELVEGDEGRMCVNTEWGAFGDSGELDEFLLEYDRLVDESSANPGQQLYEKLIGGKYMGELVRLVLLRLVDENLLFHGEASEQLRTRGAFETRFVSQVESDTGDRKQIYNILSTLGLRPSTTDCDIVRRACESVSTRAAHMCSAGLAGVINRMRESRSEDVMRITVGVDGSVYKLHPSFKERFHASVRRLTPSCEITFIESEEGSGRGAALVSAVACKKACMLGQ
Test: Glucokinase activation assay (PK/LDH-coupled, NADH depletion at 340 nm)
Format: biochemical
Conditions: for Emax: % max activation = (Va/Vo−1)×100 from fit, pH 7.1, read-out: Maximum Activation (%)
Protocol: Full-length glucokinase (beta cell isoform) was His-tagged at N-terminus and purified by a Ni column followed by size exclusion chromatography. A 320 mL column was packed in house using Superdex75 (Amersham Pharmacia, Carlsbad, Calif.) preparation grade resin. Glucose was obtained from Calbiochem (San Diego, Calif.) and other reagents were purchased from Sigma-Aldrich (St. Louis, Mo.).
All assays were performed in a Corning 384-well plate using Spectramax PLUS spectrophotometer (Molecular Devices, Sunnyvale, Calif.) at room temperature. The final assay volume was 40 ∥L. The buffer conditions used in this assay were as follows: 50 mM HEPES, 5 mM glucose, 2.5 mM ATP, 3.5 mM MgCl2, 0.7 mM NADH, 2 mM dithiothreitol, 1 unit/mL pyruvate kinase/lactate dehydrogenase (PK/LDH), 0.2 mM phosphoenolpyruvate, and 25 mM KCl. The buffer pH was 7.1. The test compound in dimethylsulfoxide solution was added to the buffer and mixed by a plate shaker for 7.5 minutes. The final concentration of dimethylsulfoxide introduced into the assay was 0.25%.
Glucokinase was added to the buffer mixture to initiate the reaction in the presence and absence of compound. The reaction was monitored by absorbance at 340 nm due to the depletion of NADH. The initial reaction velocity was measured by the slope of a linear time course of 0-300 seconds. The percentage of maximum activation was calculated by the following equation: % Maximum Activation=(Va/Vo−1)×100; wherein each of Va and Vo is defined as the initial reaction velocity in the presence and absence of the tested compound, respectively.
The glucokinase activities were measured as a function of compound concentrations.

[1] = 5 mM glucose, 2.5 mM ATP, pH 7.1, room temperature, single value or range where N>1, read-out: EC50
[2] = 5 mM glucose, single value or range where N>1

| SMILES | EC50 [1] [µM] | Emax [2] [%] | EC50 [µM] |
| --- | --- | --- | --- |
| CC(C)S(=O)(=O)c1cn([C@@H](CC2CCCC2)C(=O)Nc2ccn(C)n2)cn1 [Example 29, (S)-3-cyclopentyl-2-(4-(isopropylsulfonyl)-1H-imidazol-1-yl)-N-(1-methyl-1H-pyrazol-3-yl)propanamide] | 17 | 112 | – |
| Cc1cnc(NC(=O)[C@H](CC2CCCC2)n2cnc(S(=O)(=O)C(C)C)c2)cn1 [Example 30, (S)-3-cyclopentyl-2-(4-(isopropylsulfonyl)-1H-imidazol-1-yl)-N-(5-methylpyrazin-2-yl)propanamide] | 10 | 100 | – |
| CCS(=O)(=O)c1cn([C@@H](CC2CCCC2)C(=O)Nc2ccn(C)n2)cn1 [Example 31, (S)-3-cyclopentyl-2-(4-(ethylsulfonyl)-1H-imidazol-1-yl)-N-(1-methyl-1H-pyrazol-3-yl)propanamide] | 11 | 125 | – |
| CCS(=O)(=O)c1cn([C@@H](CC2CCCC2)C(=O)Nc2cnc(C)cn2)cn1 [Example 33, (S)-3-cyclopentyl-2-(4-(ethylsulfonyl)-1H-imidazol-1-yl)-N-(5-methylpyrazin-2-yl)propanamide] | 16 | 136 | – |
| Cc1cnc(NC(=O)[C@H](CC2CCCC2)n2cnc(S(C)(=O)=O)c2)cn1 [Example 34, (S)-3-cyclopentyl-N-(5-methylpyrazin-2-yl)-2-(4-(methylsulfonyl)-1H-imidazol-1-yl)propanamide] | 62 | 236 | – |
| Cc1ccc(NC(=O)[C@H](CC2CCCC2)n2cnc(S(C)(=O)=O)c2)nc1 [Example 35, (S)-3-cyclopentyl-N-(5-methylpyridin-2-yl)-2-(4-(methylsulfonyl)-1H-imidazol-1-yl)propanamide] | 0.8 | 100 | – |
| Cn1ccc(NC(=O)[C@H](CC2CCCC2)n2cnc(S(C)(=O)=O)c2)n1 [Example 36, (S)-3-cyclopentyl-N-(1-methyl-1H-pyrazol-3-yl)-2-(4-(methylsulfonyl)-1H-imidazol-1-yl)propanamide] | 23 | 125 | – |
| CS(=O)(=O)c1cn([C@@H](CC2CCCC2)C(=O)Nc2ccc(C(=O)O)cn2)cn1 [Example 38, (S)-6-(3-cyclopentyl-2-(4-(methylsulfonyl)-1H-imidazol-1-yl)propanamido)nicotinic acid] | 2.3 | 160 | – |
| Cn1ccc(NC(=O)[C@H](CC2CCCC2)n2cnc(C(F)(F)F)c2)n1 [Example 43, (S)-3-cyclopentyl-N-(1-methyl-1H-pyrazol-3-yl)-2-(4-(trifluoromethyl)-1H-imidazol-1-yl)propanamide] | 2.9 to 3.5 | 147 to 166 | – |
| Cc1cnc(NC(=O)[C@H](CC2CCCC2)n2cnc(C(F)(F)F)c2)cn1 [Example 45, (S)-3-cyclopentyl-N-(5-methylpyrazin-2-yl)-2-(4-(trifluoromethyl)-1H-imidazol-1-yl)propanamide] | 2 | 161 | – |
| CCn1ncc(NC(=O)[C@H](CC2CCCC2)n2cnc(C(F)(F)F)c2)n1 [Example 49, (S)-3-cyclopentyl-N-(2-ethyl-2H-[1,2,3]triazol-4-yl)-2-(4-trifluoromethyl-1H-imidazol-1-yl)propanamide] | 2.2 | 168 | – |
| O=C(Nc1cnc([C@H](O)CO)cn1)[C@H](CC1CCCC1)n1cnc(C(F)(F)F)c1 [Example 50, (S)-3-cyclopentyl-N-(5-((S)-1,2-dihydroxyethyl)pyrazin-2-yl)-2-(4-(trifluoromethyl)-1H-imidazol-1-yl)propanamide] | 2.6 to 4.2 | 121 to 140 | – |
| CS(=O)(=O)c1ccc(NC(=O)[C@H](CC2CCCC2)n2cnc(C(F)(F)F)c2)nc1 [Example 51, (S)-3-cyclopentyl-N-[5-(methylsulfonyl)pyridin-2-yl]-2-[4-(trifluoromethyl)-1H-imidazol-1-yl]propanamide] | 6.7 to 8.8 | 90 to 113 | – |
| NC(=O)c1ccc(NC(=O)[C@H](CC2CCCC2)n2cnc(C(F)(F)F)c2)nc1 [Example 52, 6-[(S)-3-cyclopentyl-2-(4-trifluoromethyl-1H-imidazol-1-yl)-propionylamino]-nicotinamide] | 0.4 | 110 | – |
| CC(C)(O)Cn1ccc(NC(=O)[C@H](CC2CCCC2)n2cnc(C(F)(F)F)c2)n1 [Example 56, (S)-3-cyclopentyl-N-(1-(2-hydroxy-2-methylpropyl)-1H-pyrazol-3-yl)-2-(4-(trifluoromethyl)-1H-imidazol-1-yl)propanamide] | 5.2 | 167 | – |
| CCOP(=O)(Cc1ccc(NC(=O)[C@H](CC2CCCC2)n2cnc(C(F)(F)F)c2)nc1)OCC [Example 58, (S)-diethyl(6-(3-cyclopentyl-2-(4-(trifluoromethyl)-1H-imidazol-1-yl)propanamido)pyridin-3-yl)methylphosphonate] | – | 129 | 3.4 |
| CCOP(=O)(OCC)c1ccc(NC(=O)[C@H](CC2CCCC2)n2cnc(C(F)(F)F)c2)nc1 [Example 59, (S)-diethyl 6-(3-cyclopentyl-2-(4-(trifluoromethyl)-1H-imidazol-1-yl)propanamido)pyridin-3-ylphosphonate] | – | 81 | 14 |
| O=C(Nc1ccc(CP(=O)(O)O)cn1)[C@H](CC1CCCC1)n1cnc(C(F)(F)F)c1 [Example 60, (S)-(6-(3-cyclopentyl-2-(4-(trifluoromethyl)-1H-imidazol-1-yl)propanamido)pyridin-3-yl)methylphosphonic acid] | 4.6 | 112 | – |
| CC(C)(C(=O)O)c1ccc(NC(=O)[C@H](CC2CCCC2)n2cnc(C(F)(F)F)c2)nc1 [Example 65, (S)-2-(6-(3-cyclopentyl-2-(4-(trifluoromethyl)-1H-imidazol-1-yl)propanamido)pyridin-3-yl)-2-methylpropanoic acid] | 17 | 84 | – |
| CC(C)(O)C(=O)Nc1ccc(NC(=O)[C@H](CC2CCCC2)n2cnc(C(F)(F)F)c2)nc1 [Example 67, (S)-3-Cyclopentyl-N-[5-(2-hydroxy-2-methyl-propionylamino)-pyridin-2-yl]-2-(4-trifluoromethyl-imidazol-1-yl)-propionamide] | 2.8 | 104 | – |
| Cn1ccc(NC(=O)[C@H](CC2CCCC2)n2ccc(C(F)(F)F)n2)n1 [Example 68, (S)-3-cyclopentyl-N-(1-methyl-1H-pyrazol-3-yl)-2-(3-(trifluoromethyl)-1H-pyrazol-1-yl)propanamide] | > 100 | – | – |
| Cc1ccc(NC(=O)[C@H](CC2CCCC2)n2ccc(C(F)(F)F)n2)nc1 [Example 69, (S)-3-cyclopentyl-N-(5-methylpyridin-2-yl)-2-(3-(trifluoromethyl)-1H-pyrazol-1-yl)propanamide] | 5.5 | 90 | – |
| Cc1cnc(NC(=O)[C@H](CC2CCCC2)n2ccc(C(F)(F)F)n2)cn1 [Example 70, (S)-3-cyclopentyl-N-(5-methylpyrazin-2-yl)-2-(3-(trifluoromethyl)-1H-pyrazol-1-yl)propanamide] | 24 | 124 | – |
| CN(C)C(=O)c1cnn([C@@H](CC2CCCC2)C(=O)Nc2ccn(C)n2)c1 [Example 71, (S)-1-(3-cyclopentyl-1-(1-methyl-1H-pyrazol-3-ylamino)-1-oxopropan-2-yl)-N,N-dimethyl-1H-pyrazole-4-carboxamide] | > 30 | – | – |
| Cc1ccc(NC(=O)[C@H](CC2CCCC2)n2cc(C(=O)N(C)C)cn2)nc1 [Example 72, (S)-1-(3-cyclopentyl-1-(5-methylpyridin-2-ylamino)-1-oxopropan-2-yl)-N,N-dimethyl-1H-pyrazole-4-carboxamide] | > 100 | – | – |
| Cc1cnc(NC(=O)[C@H](CC2CCCC2)n2cc(C(=O)N(C)C)cn2)cn1 [Example 73, (S)-1-(3-cyclopentyl-1-(5-methylpyrazin-2-ylamino)-1-oxopropan-2-yl)-N,N-dimethyl-1H-pyrazole-4-carboxamide] | > 100 | – | – |
| Cc1cnc(NC(=O)[C@H](CC2CCOCC2)n2cnc(C(F)(F)F)c2)cn1 [Example 74, (S)—N-(5-methylpyrazin-2-yl)-3-(tetrahydro-2H-pyran-4-yl)-2-(4-(trifluoromethyl)-1H-imidazol-1-yl)propanamide] | 8.7 | 115 | – |
